Columns and labels:
[1] = molecular target: Beta-1 adrenergic receptor (Homo sapiens, UniProt P08588); assay: DRUGMATRIX: Adrenergic beta1 radioligand binding (ligand: [125I] Cyanopindolol); format: cell membranes, CHO-K1, Membrane; details: cho-k1; Not Active = under 50% inhibition at 10 µM
Interstitial collagenase = molecular target: T1, Interstitial collagenase (Homo sapiens, UniProt P03956); format: tissue-based, Rheumatoid synovial fibroblasts;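 note: MMP-1 enzyme inhibition assay using a peptide substrate; in other assays of this panel Not Active means under 50% inhibition at 10 µM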
T1 sequence (P03956 whole entry): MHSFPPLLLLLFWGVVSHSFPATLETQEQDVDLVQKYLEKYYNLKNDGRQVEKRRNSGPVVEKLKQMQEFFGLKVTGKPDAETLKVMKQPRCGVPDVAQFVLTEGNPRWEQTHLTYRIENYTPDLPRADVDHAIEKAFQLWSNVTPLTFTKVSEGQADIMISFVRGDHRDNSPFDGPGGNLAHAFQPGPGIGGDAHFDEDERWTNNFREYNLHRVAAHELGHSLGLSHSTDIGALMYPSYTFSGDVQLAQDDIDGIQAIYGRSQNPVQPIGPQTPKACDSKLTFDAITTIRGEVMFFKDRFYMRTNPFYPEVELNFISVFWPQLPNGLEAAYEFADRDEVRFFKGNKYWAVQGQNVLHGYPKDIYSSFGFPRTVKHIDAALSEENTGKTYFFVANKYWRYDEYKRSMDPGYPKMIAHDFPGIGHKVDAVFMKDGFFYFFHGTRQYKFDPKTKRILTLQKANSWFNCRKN

Neutrophil elastase = molecular target: T2, Neutrophil elastase (Homo sapiens, UniProt P08246); format: tissue-based;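 note: inhibition of neutrophil elastase enzyme activity, measured with a p-nitroanilide-linked peptide substrate; in other assays of this panel Not Active means under 50% inhibition at 10 µM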
T2 sequence (P08246 whole entry): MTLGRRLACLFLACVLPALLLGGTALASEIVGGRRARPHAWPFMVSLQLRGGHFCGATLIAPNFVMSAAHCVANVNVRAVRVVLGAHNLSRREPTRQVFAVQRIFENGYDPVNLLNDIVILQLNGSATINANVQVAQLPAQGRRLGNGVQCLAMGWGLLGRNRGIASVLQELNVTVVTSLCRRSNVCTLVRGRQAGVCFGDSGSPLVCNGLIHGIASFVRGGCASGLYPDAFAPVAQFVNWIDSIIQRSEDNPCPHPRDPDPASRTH

[2] = molecular target: T3, Angiotensin-converting enzyme (Oryctolagus cuniculus, UniProt P12822); format: tissue-based, Lung;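 note: enzymatic inhibition of angiotensin-converting enzyme measured with FAPGG as the substrate; in other assays of this panel Not Active means under 50% inhibition at 10 µM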
T3 sequence (P12822 whole entry): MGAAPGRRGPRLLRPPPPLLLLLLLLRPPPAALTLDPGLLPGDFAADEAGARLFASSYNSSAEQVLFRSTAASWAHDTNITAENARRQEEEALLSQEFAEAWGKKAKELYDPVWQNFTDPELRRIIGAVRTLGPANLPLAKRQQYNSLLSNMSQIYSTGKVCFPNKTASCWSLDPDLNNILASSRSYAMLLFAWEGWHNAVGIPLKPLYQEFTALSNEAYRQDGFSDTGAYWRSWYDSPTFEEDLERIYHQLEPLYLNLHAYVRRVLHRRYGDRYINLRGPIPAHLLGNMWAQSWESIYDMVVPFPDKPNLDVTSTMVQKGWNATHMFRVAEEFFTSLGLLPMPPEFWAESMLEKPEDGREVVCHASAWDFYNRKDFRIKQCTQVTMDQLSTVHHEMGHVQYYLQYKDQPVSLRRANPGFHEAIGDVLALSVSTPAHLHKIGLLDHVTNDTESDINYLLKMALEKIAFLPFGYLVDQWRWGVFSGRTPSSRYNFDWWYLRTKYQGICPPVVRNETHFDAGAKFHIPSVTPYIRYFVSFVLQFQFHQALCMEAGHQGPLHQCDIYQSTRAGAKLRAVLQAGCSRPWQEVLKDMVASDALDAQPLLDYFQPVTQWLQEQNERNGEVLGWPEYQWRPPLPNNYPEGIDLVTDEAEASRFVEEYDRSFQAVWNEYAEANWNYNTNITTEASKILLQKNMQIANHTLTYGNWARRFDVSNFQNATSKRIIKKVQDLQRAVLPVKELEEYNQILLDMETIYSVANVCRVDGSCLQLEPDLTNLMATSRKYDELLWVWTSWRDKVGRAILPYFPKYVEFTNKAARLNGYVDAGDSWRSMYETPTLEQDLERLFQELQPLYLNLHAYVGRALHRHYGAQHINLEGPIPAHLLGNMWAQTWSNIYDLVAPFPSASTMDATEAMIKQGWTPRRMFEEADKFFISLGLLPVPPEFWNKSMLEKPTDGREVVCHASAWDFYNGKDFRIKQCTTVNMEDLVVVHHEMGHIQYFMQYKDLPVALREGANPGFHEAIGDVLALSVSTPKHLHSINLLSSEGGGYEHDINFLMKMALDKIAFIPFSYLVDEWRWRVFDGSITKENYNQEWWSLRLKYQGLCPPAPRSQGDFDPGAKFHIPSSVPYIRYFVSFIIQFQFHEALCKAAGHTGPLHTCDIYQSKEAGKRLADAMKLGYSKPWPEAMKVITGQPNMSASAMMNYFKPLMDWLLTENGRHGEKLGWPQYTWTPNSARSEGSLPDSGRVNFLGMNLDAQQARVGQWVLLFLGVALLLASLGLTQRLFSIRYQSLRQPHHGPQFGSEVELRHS

[3] = DRUGMATRIX: Glutamate, NMDA, Phencyclidine radioligand binding (ligand: [3H] TCP); format: cell membranes, Rattus norvegicus, Wistar, Cerebral cortex, Membrane; details: Not Active = under 50% inhibition at 10 µM
[4] = DRUGMATRIX: Phorbol Ester radioligand binding (ligand: [3H] PDBu); format: cell membranes, Mus musculus, ICR, Brain, Membrane; details: Not Active = under 50% inhibition at 10 µM
[5] = molecular target: Receptor tyrosine-protein kinase erbB-2 (Homo sapiens, UniProt P04626); assay: biochemical; format: cell-based, Insect cells; details: insect cells;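 note: inhibition of HER2 kinase enzyme activity, measured with Poly(Glu:Tyr) as the phosphorylation substrate; in other assays of this panel Not Active means under 50% inhibition at 10 µM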
Glycine receptor = Glycine receptor (Rattus norvegicus, UniProt P22771+P24524+P07727+P20781); format: cell membranes, Wistar, Spinal cord, Membrane; note: in other assays of this panel Not Active means under 50% inhibition at 10 µM

Sequence of Beta-1 adrenergic receptor (P08588 whole entry): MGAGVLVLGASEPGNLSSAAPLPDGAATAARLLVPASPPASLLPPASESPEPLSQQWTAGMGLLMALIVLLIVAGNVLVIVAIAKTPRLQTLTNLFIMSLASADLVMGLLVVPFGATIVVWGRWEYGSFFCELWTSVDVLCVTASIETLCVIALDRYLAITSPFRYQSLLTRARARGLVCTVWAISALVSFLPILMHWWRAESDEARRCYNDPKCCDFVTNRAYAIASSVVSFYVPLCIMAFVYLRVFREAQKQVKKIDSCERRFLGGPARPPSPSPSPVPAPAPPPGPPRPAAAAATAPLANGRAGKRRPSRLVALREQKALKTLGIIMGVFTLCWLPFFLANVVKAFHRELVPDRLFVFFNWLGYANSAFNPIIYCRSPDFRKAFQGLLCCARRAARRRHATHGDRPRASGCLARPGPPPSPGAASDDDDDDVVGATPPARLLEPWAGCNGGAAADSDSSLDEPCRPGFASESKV
Sequence of Receptor tyrosine-protein kinase erbB-2 (P04626 whole entry): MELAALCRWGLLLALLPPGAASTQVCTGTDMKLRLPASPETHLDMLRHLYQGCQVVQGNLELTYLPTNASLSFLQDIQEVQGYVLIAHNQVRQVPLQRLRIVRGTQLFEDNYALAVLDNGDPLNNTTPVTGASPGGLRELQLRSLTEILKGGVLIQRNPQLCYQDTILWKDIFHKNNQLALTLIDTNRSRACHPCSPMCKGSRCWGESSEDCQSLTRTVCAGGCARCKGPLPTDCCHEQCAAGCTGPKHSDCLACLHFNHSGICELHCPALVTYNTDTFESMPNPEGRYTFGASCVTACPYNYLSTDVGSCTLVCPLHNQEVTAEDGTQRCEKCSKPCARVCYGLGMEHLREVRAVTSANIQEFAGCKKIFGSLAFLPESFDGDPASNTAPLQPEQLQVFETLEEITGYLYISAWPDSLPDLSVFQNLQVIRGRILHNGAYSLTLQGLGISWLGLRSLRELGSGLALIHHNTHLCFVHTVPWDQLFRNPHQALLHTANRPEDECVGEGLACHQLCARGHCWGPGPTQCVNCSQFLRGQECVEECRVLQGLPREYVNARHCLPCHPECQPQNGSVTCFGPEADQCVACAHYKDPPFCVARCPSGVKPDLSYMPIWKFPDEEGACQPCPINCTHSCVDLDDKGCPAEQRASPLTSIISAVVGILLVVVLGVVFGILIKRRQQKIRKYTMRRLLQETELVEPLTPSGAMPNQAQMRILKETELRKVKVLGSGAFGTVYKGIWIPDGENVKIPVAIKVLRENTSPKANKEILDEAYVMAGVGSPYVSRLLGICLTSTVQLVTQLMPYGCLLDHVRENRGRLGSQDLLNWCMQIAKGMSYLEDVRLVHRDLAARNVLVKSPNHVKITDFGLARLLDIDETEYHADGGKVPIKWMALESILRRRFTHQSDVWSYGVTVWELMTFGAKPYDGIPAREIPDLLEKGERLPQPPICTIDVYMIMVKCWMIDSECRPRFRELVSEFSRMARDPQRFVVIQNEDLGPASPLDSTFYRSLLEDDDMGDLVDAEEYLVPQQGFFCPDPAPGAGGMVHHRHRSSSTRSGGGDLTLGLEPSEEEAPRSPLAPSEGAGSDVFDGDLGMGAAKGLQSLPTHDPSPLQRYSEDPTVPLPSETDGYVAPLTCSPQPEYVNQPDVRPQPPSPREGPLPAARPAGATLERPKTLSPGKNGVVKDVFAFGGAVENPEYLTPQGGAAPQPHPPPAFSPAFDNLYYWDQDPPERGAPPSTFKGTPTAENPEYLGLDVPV

Cc1cnc(C(=O)NCCc2ccc(S(=O)(=O)NC(=O)NC3CCCCC3)cc2)cn1 [GLIPIZIDE]
Not Active: IC50 [1] | IC50 (Interstitial collagenase) | IC50 (Neutrophil elastase) | IC50 [2] | IC50 [3] | Ki [3] | IC50 [4] | Ki [4] | IC50 [5] | IC50 (Glycine receptor)

Cc1c(F)c(N2CCNC(C)C2)cc2c1c(=O)c(C(=O)O)cn2C1CC1 (stereo not given) [GREPAFLOXACIN]
Not Active: IC50 [1] | IC50 (Interstitial collagenase) | IC50 (Neutrophil elastase) | IC50 [2] | IC50 [3] | Ki [3] | IC50 [4] | Ki [4] | IC50 [5] | IC50 (Glycine receptor)

COc1ccccc1OCC(O)CO (stereo not given) [GUAIFENESIN]
Not Active: IC50 [1] | IC50 (Interstitial collagenase) | IC50 (Neutrophil elastase) | IC50 [2] | IC50 [3] | Ki [3] | IC50 [4] | Ki [4] | IC50 [5] | IC50 (Glycine receptor)

N=C(N)N/N=C/c1c(Cl)cccc1Cl [GUANABENZ]
Not Active: IC50 [1] | IC50 (Interstitial collagenase) | IC50 (Neutrophil elastase) | IC50 [2] | IC50 [3] | Ki [3] | IC50 [4] | Ki [4] | IC50 [5] | IC50 (Glycine receptor)

C[C@]12CCC(=O)C=C1CC[C@@H]1[C@@H]2[C@@H](O)C[C@@]2(C)[C@H]1CC[C@]2(O)C(=O)CO [HYDROCORTISONE]
Not Active: IC50 [1] | IC50 (Interstitial collagenase) | IC50 (Neutrophil elastase) | IC50 [2] | IC50 [3] | Ki [3] | IC50 [4] | Ki [4] | IC50 [5] | IC50 (Glycine receptor)

C/C=C\c1ccc(O)c(OC)c1 [ISOEUGENOL]
Not Active: IC50 [1] | IC50 (Interstitial collagenase) | IC50 (Neutrophil elastase) | IC50 [2] | IC50 [3] | Ki [3] | IC50 [4] | Ki [4] | IC50 [5] | IC50 (Glycine receptor)

CC[C@H](C)C(=O)O[C@H]1C[C@@H](C)C=C2C=C[C@H](C)[C@H](CC[C@@H]3C[C@@H](O)CC(=O)O3)[C@H]21 [LOVASTATIN]
Not Active: IC50 [1] | IC50 (Interstitial collagenase) | IC50 (Neutrophil elastase) | IC50 [2] | IC50 [3] | Ki [3] | IC50 [4] | Ki [4] | IC50 [5] | IC50 (Glycine receptor)

CC(C(=O)O)c1ccc(CC2CCCC2=O)cc1 (stereo not given) [LOXOPROFEN]
Not Active: IC50 [1] | IC50 (Interstitial collagenase) | IC50 (Neutrophil elastase) | IC50 [2] | IC50 [3] | Ki [3] | IC50 [4] | Ki [4] | IC50 [5] | IC50 (Glycine receptor)

Cc1cccc(Nc2ccccc2C(=O)O)c1C [MEFENAMIC ACID]
Not Active: IC50 [1] | IC50 (Interstitial collagenase) | IC50 (Neutrophil elastase) | IC50 [2] | IC50 [3] | Ki [3] | IC50 [4] | Ki [4] | IC50 [5] | IC50 (Glycine receptor)

CC(=O)O[C@]1(C(C)=O)CC[C@H]2[C@@H]3C=C(C)C4=CC(=O)CC[C@]4(C)[C@H]3CC[C@@]21C [MEGESTROL ACETATE]
Not Active: IC50 [1] | IC50 (Interstitial collagenase) | IC50 (Neutrophil elastase) | IC50 [2] | IC50 [3] | Ki [3] | IC50 [4] | Ki [4] | IC50 [5] | IC50 (Glycine receptor)

COc1ccccc1OCC(O)COC(N)=O (stereo not given) [METHOCARBAMOL]
Not Active: IC50 [1] | IC50 (Interstitial collagenase) | IC50 (Neutrophil elastase) | IC50 [2] | IC50 [3] | Ki [3] | IC50 [4] | Ki [4] | IC50 [5] | IC50 (Glycine receptor)

CN(Cc1cnc2nc(N)nc(N)c2n1)c1ccc(C(=O)N[C@@H](CCC(=O)O)C(=O)O)cc1 [METHOTREXATE]
Not Active: IC50 [1] | IC50 (Interstitial collagenase) | IC50 (Neutrophil elastase) | IC50 [2] | IC50 [3] | Ki [3] | IC50 [4] | Ki [4] | IC50 [5] | IC50 (Glycine receptor)

COC(=O)c1ccccc1O [METHYL SALICYLATE]
Not Active: IC50 [1] | IC50 (Interstitial collagenase) | IC50 (Neutrophil elastase) | IC50 [2] | IC50 [3] | Ki [3] | IC50 [4] | Ki [4] | IC50 [5] | IC50 (Glycine receptor)

COc1ccc2cc(CCC(C)=O)ccc2c1 [NABUMETONE]
Not Active: IC50 [1] | IC50 (Interstitial collagenase) | IC50 (Neutrophil elastase) | IC50 [2] | IC50 [3] | Ki [3] | IC50 [4] | Ki [4] | IC50 [5] | IC50 (Glycine receptor)

O=C(O)c1cccnc1 [NIACIN]
Not Active: IC50 [1] | IC50 (Interstitial collagenase) | IC50 (Neutrophil elastase) | IC50 [2] | IC50 [3] | Ki [3] | IC50 [4] | Ki [4] | IC50 [5] | IC50 (Glycine receptor)

CNC(=C[N+](=O)[O-])NCCSCc1csc(CN(C)C)n1 [NIZATIDINE]
Not Active: IC50 [1] | IC50 (Interstitial collagenase) | IC50 (Neutrophil elastase) | IC50 [2] | IC50 [3] | Ki [3] | IC50 [4] | Ki [4] | IC50 [5] | IC50 (Glycine receptor)

C[C@]12C/C(=C/O)C(=O)C[C@@H]1CC[C@@H]1[C@@H]2CC[C@@]2(C)[C@H]1CC[C@]2(C)O [OXYMETHOLONE]
Not Active: IC50 [1] | IC50 (Interstitial collagenase) | IC50 (Neutrophil elastase) | IC50 [2] | IC50 [3] | Ki [3] | IC50 [4] | Ki [4] | IC50 [5] | IC50 (Glycine receptor)

CC(C)(CO)C(O)C(=O)NCCCO (stereo not given) [PANTHENOL]
Not Active: IC50 [1] | IC50 (Interstitial collagenase) | IC50 (Neutrophil elastase) | IC50 [2] | IC50 [3] | Ki [3] | IC50 [4] | Ki [4] | IC50 [5] | IC50 (Glycine receptor)

COc1ccc(Cc2nccc3cc(OC)c(OC)cc23)cc1OC [PAPAVERINE]
Not Active: IC50 [1] | IC50 (Interstitial collagenase) | IC50 (Neutrophil elastase) | IC50 [2] | IC50 [3] | Ki [3] | IC50 [4] | Ki [4] | IC50 [5] | IC50 (Glycine receptor)

From ChEMBL document CHEMBL1909046, “DrugMatrix in vitro pharmacology data”
